Results taken from publication PMC11145868, “Protein target similarity is positive predictor of in vitro antipathogenic activity: a drug repurposing strategy for Plasmodium falciparum” (Journal of Cheminformatics, 2024).
pEC50, pIC50: −log10 of the molar value. Counter-ions that a name gives are not always drawn. Like-named read-outs stand apart in the source and are kept apart here. Numbered stars: 1 amine (or outer) side, 2 acyl side, 3 side chain; on linkers, the order of the positions; unused ones are H or OH. Bridge positions count the residues as written; N and C are the ends. Square brackets hold non-standard residues; d marks the D form. Peptide text beside a SMILES is read from it. I, II: the chains in the order shown. Actinocin(9to1) = Cc1c2oc3c(C)ccc(C(=O)[*:1])c3nc-2c(C(=O)[*:2])c(N)c1=O; NMeV = CN[C@H](C(=O)O)C(C)C; Sar = CNCC(=O)O

What was measured:
P. falciparum Dd2-HLH [1] = test: microbe, parasite or virus in culture; type: cell-based, Plasmodium falciparum
P. falciparum Dd2-HLH [2] = test: microbe, parasite or virus in culture; type: cell-based, Plasmodium falciparum; remark: listed apart in the source
in vitro [3] = conditions: human
[4] = system: P. berghei-luciferase sporozoites; test: microbe, parasite or virus in culture; type: cell-based, Plasmodium berghei
in vitro [5] = conditions: human; remark: listed apart in the source
HepG2 cells [6] = test: Mammalian cell cytotoxicity assay, HepG2 (CellTiter-Glo, 72 h); conditions: read-out: HEP CC50
HEK293T cells [7] = test: Mammalian cell cytotoxicity assay, HEK293T (CellTiter-Glo, 72 h); conditions: read-out: HEK CC50
HepG2 cells [8] = system: HepG2 cells
HEK293T cells [9] = system: HEK293T cells
[10] = Mammalian cell cytotoxicity assay, HepG2 (CellTiter-Glo, 72 h); conditions: human
[11] = system: P. falciparum blood-stage; design: method as in PMID 28874661; conditions: read-out: EC50 against P. falciparum blood-stage growth in vitro; cited from earlier work
PfPKG = conditions: read-out: IC50 in PfPKG kinase assays; cited from earlier work
[12] = system: P. falciparum (NF54 drug-sensitive strain); design: method as in PMID 28446690; conditions: read-out: EC50 against intraerythrocytic lifecycle stages of P. falciparum; cited from earlier work
[13] = Plasmodium falciparum, DD2, 72 h, read-out: Blood stage 72h EC50
[14] = Plasmodium falciparum, DD2, 48 h, read-out: Blood stage 48h EC50
[15] = Plasmodium berghei, HepG2, liver-stage parasites, 48 hours in culture, read-out: Liver stage 48h EC50
[16] = P. falciparum blood-stage parasites, 72 hours in culture, read-out: Blood stage 72h EC50
[17] = P. falciparum blood-stage parasites, 48 hours in culture, read-out: Blood stage 48h EC50
[18] = liver-stage parasites, 48 hours in culture, read-out: Liver stage 48h EC50
[19] = Plasmodium falciparum, DD2, blood-stage parasites, 72 h in culture, read-out: Blood stage 72 h EC50
[20] = Plasmodium falciparum, DD2, blood-stage parasites, 48 h in culture, read-out: Blood stage 48 h EC50
[21] = Plasmodium berghei, liver-stage parasites, 48 h in culture, read-out: Liver 48 h EC50

| Compound | pEC50 (P. falciparum Dd2-HLH [1]; [16]) | pEC50 (P. falciparum Dd2-HLH [2]; [17]) | pEC50 [4, 18] | CC50 (HepG2 cells [8]) [nM] | CC50 (HEK293T cells [9]) [nM] | further results |
| --- | --- | --- | --- | --- | --- | --- |
| CCN(CCO)CCCOc1ccc2c(Nc3cc(CC(=O)Nc4cccc(F)c4)n[nH]3)ncnc2c1 [Barasertib-HQPA] | – | – | – | – | – | pEC50 (P. falciparum Dd2-HLH [1]; [13]): 6.27; pEC50 (P. falciparum Dd2-HLH [2]; [14]): 6.60; CC50 (in vitro [3]): > 9990 nM; pEC50 [4, 15]: 5.34; CC50 (in vitro [5]): > 9950 nM |
| CCCC1(CCC)CCC2(CCN(CCCN(CC)CC)C2)CC1 [Atiprimod dimaleate] | 6.37 | 7.37 | 5.13 | – | – | CC50 (HepG2 cells [6]; HepG2 cells): 2990 nM; CC50 (HEK293T cells [7]; HEK293T cells): 1720 nM |
| C=C/C=C/C[C@@H](C)[C@@H](O)[C@H]1C(=O)N[C@@H](CC)C(=O)N(C)CC(=O)N(C)[C@@H](CC(C)C)C(=O)N[C@@H](C(C)C)C(=O)N(C)[C@@H](CC(C)C)C(=O)N[C@@H](C)C(=O)N[C@H](C)C(=O)N(C)[C@@H](CC(C)C)C(=O)N(C)[C@@H](CC(C)C)C(=O)N(C)[C@@H](C(C)C)C(=O)N1C [Voclosporin] | 6.60 | – | – | – | – | CC50 (HepG2 cells [6]; HepG2 cytotoxicity): > 9950 nM; CC50 (HEK293T cells [7]; HEK293T cytotoxicity): > 9950 nM |
| O=C1c2ccccc2C(=O)c2sc(-c3ccco3)nc21 [INO-5042] | 6.39 | – | 5.68 | 705 | 1330 | – |
| CCCCCCCCN=c1ccn(CCCCCCCC)cc1 [Pirtenidine] | 6.21 | – | 6.08 | – | – | CC50 (HepG2 cells [6]; HepG2 cells): 1080 nM; CC50 (HEK293T cells [7]; HEK293T cells): 279 nM |
| CS[C@H]1SC[C@H]2C(=O)N(C)[C@@H](C(C)C)C(=O)OC[C@@H](NC(=O)c3cnc4ccccc4n3)C(=O)N[C@@H](C)C(=O)N(C)[C@@H]1C(=O)N(C)[C@@H](C(C)C)C(=O)OC[C@@H](NC(=O)c1cnc3ccccc3n1)C(=O)N[C@@H](C)C(=O)N2C [Echinomycin] | – | – | – | – | – | CC50 at 72 h [10]: 1 nM; pEC50 (P. falciparum Dd2-HLH [1]; Plasmodium falciparum, DD2, P. falciparum blood-stage parasites, 72 hours in culture, read-out: Blood stage 72h EC50): 8.52; pEC50 [4, 15]: 8.70; CC50 (in vitro [5]): 1 nM |
| CCN(CC)CC(O)CNc1c2ccc(Cl)cc2nc2ccc(OC)cc12 (centres unmarked) [Acranil] | 7.70 | 8.10 | 6.51 | – | – | CC50 (HepG2 cells [6]; HepG2 cells): 1110 nM; CC50 (HEK293T cells [7]; HEK293T cells): 1430 nM |
| CCC(CC)Nc1cc(C)nc(Oc2c(C)cc(C)cc2C)c1C [CP-376395] | 6.05 | 6.08 | 5.20 | – | – | CC50 (HepG2 cells [6]; HepG2 cells): 2500 nM; CC50 (HEK293T cells [7]; HEK293T cells): > 9950 nM |
| NC(=O)C(c1ccccc1)(c1ccccc1)[C@@H]1CCN(CCc2ccc3c(c2)CCO3)C1 [Darifen/Acin Hydrobromide] | – | – | – | – | – | CC50 at 72 h [10]: > 9990 nM; pEC50 (P. falciparum Dd2-HLH [1]; [13]): 6.49; pEC50 (P. falciparum Dd2-HLH [2]; [14]): 5.84; pEC50 [4, 15]: < 5.00; CC50 (in vitro [5]): > 9950 nM |
| Cc1cn2c(-c3ccnc(NCC4CC4)n3)c(-c3ccc(F)c(NS(C)(=O)=O)c3)nc2cc1CN(C)C [ML10] | – | – | – | – | – | pEC50 [11]: 8.68; pIC50 (PfPKG): 9.80 |
| CN(C)CCOc1ccc2[nH]c(C(=O)NCC#Cc3ccc(C(=O)NO)cc3)cc2c1 [CRA-026440] | 7.20 | 7.82 | 5.60 | 107 | 836 | – |
| CC(C)CCNC(=O)C(CC(C)C)NC(=O)C1OC1C(=O)O (centres unmarked) [EP-475] | 6.50 | 6.57 | < 5.00 | > 9990 | > 9950 | – |
| NC(=O)[C@@H](CC1CC1)[C@@H](CCC(F)(F)F)C(=O)N[C@H]1N=C(c2ccccc2)c2cccc(F)c2NC1=O [BMS-983970] | 7.08 | 7.20 | 6.99 | 59 | > 9950 | – |
| Cc1cc2c(C(N)=O)cccc2n1-c1nc2c(c(NCc3ccccc3)n1)COCC2 [CB-5083] | – | – | – | – | – | CC50 at 72 h [10]: 468 nM; pEC50 (P. falciparum Dd2-HLH [1]; [13]): 6.22; pEC50 (P. falciparum Dd2-HLH [2]; [14]): 6.63; pEC50 ([4]; Plasmodium berghei, HepG2, 48 h, read-out: Liver stage 48h EC50): 6.27; CC50 (in vitro [5]): 469 nM |
| CCCNCC(O)COc1ccccc1C(=O)CCc1ccccc1 (centres unmarked) [Propafenone SR] | – | – | – | > 9990 | > 9950 | pEC50 (P. falciparum Dd2-HLH [1]; read-out: Blood stage 72h EC50): 6.25; pEC50 (P. falciparum Dd2-HLH [2]; read-out: Blood stage 48h EC50): 6.60; pEC50 ([4]; read-out: Liver stage 48h EC50): < 5.00 |
| Oc1ccc(CCN2CCC(Nc3nc4ccccc4n3Cc3ccc(F)cc3)CC2)cc1 [Desmethylastemizole] | 7.33 | 7.64 | 7.15 | – | – | CC50 (HepG2 cells [6]; HepG2 cytotoxicity): 58 nM; CC50 (HEK293T cells [7]; HEK293T cytotoxicity): 5920 nM |
| CCCCCN=C(N)Nc1nc(-c2cnc(C)[nH]2)cs1 [CP 66948] | 6.01 | 6.21 | < 5.00 | > 9950 | > 9950 | – |
| CCNCc1cncc(-c2ccc3[nH]nc(-c4nc5c(F)cc(F)cc5[nH]4)c3c2)c1C [AG-024322] | 6.37 | – | 5.52 | 112 | 145 | – |
| Cn1/c(=N\C#N)n(-c2ccc(C(C)(C)C#N)nc2)c2c3cc(-c4cnc(N)c(C(F)(F)F)c4)ccc3ncc21 [Panulisib] | 6.80 | 7.72 | 7.11 | 10 | 11 | – |
| CCOC(=O)[C@@H]1O[C@H]1C(=O)NC(CC(C)C)C(=O)N1CCN(Cc2ccc(OC)c(OC)c2OC)CC1 (some centres unmarked) [NCO 700] | 7.48 | 7.80 | < 5.00 | > 9950 | > 9950 | – |
| CN(C)CCNc1nc2cc(O)ccc2c2c1C(=O)c1ccccc1-2 [TAS-103] | 6.12 | 6.24 | 5.82 | – | – | CC50 (HepG2 cells [6]; HepG2 cytotoxicity): 766 nM; CC50 (HEK293T cells [7]; HEK293T cytotoxicity): 334 nM |
| CS(=O)(=O)c1ccc(-c2cnc(N)c(-c3ccc(C(F)(F)F)nc3)c2)cc1 [MMV390048] | – | – | – | – | – | pEC50 [12]: 7.55 |
| COc1cccc2c1C(=O)c1c(O)c3c(c(O)c1C2=O)C[C@@](O)(C(=O)CO)C[C@@H]3O[C@H]1C[C@H](N2CCO[C@H](OC)C2)[C@H](O)[C@H](C)O1 [Nemorubicin, reference compound] | – | – | – | – | – | CC50 at 72 h [10]: 2 nM; pEC50 (P. falciparum Dd2-HLH [1]; [19]): 8.05; pEC50 (P. falciparum Dd2-HLH [2]; [20]): 8.40; pEC50 [4, 21]: 8.05; CC50 (in vitro [5]): 5 nM |
| CCN(CC)CCN1C(=O)c2c(c3c4cccc(Cl)c4n([C@@H]4O[C@H](CO)[C@@H](OC)[C@H](O)[C@H]4O)c3c3[nH]c4c(Cl)cccc4c23)C1=O [Becatecarin] | 6.71 | – | 5.15 | 158 | 143 | – |
| COc1ccc(C)cc1NC(=O)Nc1nc2ccc(Nc3ncnc4cc(OCCCN5CCN(C)CC5)c(OC)cc34)cc2s1 [Compound 4SC-203] | 6.14 | – | 5.48 | 4690 | 3000 | – |
| Cc1c2oc3c(C)ccc(C(=O)N[C@@H]4C(=O)N[C@H](C(C)C)C(=O)N5CCC[C@H]5C(=O)N(C)CC(=O)N(C)[C@@H](C(C)C)C(=O)O[C@@H]4C)c3nc-2c(C(=O)N[C@@H]2C(=O)N[C@H](C(C)C)C(=O)N3CCC[C@H]3C(=O)N(C)CC(=O)N(C)[C@@H](C(C)C)C(=O)O[C@@H]2C)c(N)c1=O [Dactinomycin, reference compound] (I: T[dV]P[Sar][NMeV] / II: T[dV]P[Sar][NMeV]; ester I:1-I:C, II:1-II:C; linker I:N-II:N via Actinocin(9to1)) | – | – | – | – | – | CC50 at 72 h [10]: 3 nM; pEC50 (P. falciparum Dd2-HLH [1]; [19]): 8.10; pEC50 (P. falciparum Dd2-HLH [2]; [20]): 8.52; pEC50 [4, 21]: 7.14; CC50 (in vitro [5]): 9 nM |
| O=C(CC1c2ccccc2C(=O)N1c1ccc2ccc(Cl)nc2n1)N1CCC2(CC1)OCCO2 (centres unmarked) [Pazinaclone] | 6.37 | 7.11 | < 5.00 | – | – | CC50 (HepG2 cells [6]; HepG2 cells): > 9950 nM; CC50 (HEK293T cells [7]; HEK293T cells): > 9950 nM |
| Cc1cc(-c2cc(O)ccc2Cl)cc2nnc(Nc3ccc(OCCN4CCCC4)cc3)nc12 [TG 100572 (Hydrochloride)] | 6.23 | 6.91 | 6.19 | – | – | CC50 (HepG2 cells [6]; HepG2 cells): 3440 nM; CC50 (HEK293T cells [7]; HEK293T cells): 1730 nM |
